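48-hour exposure; five concentrations; linearly interpolated endpoints. Abbreviation: GI50, concentration required for 50% inhibition of growth. TGI is the concentration that stops growth completely.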 Where a SMILES comes first, the peptide text is derived from it. [ ]: non-standard residue; d: D form. ξ: configuration not given here. ξThz(5,5-Me2) = CC1(C)SCNC1C(=O)O
What was measured:
Experiment in all cases: inhibition of tumour cell growth, NCI panel, 48 h
HL-60(TB) leukemia = tested on: HL-60(TB) leukemia
DU-145 prostate = tested on: DU-145 prostate
NCI-H23 lung = tested on: NCI-H23 lung
NCI-H226 lung = tested on: NCI-H226 lung
UACC-257 melanoma = tested on: UACC-257 melanoma
HOP-92 NSCLC = tested on: HOP-92 NSCLC

SMILES: COc1cc(OC)cc(-c2ccc(-c3ccc(C(=N)N)cc3)s2)c1
- GI50 (HL-60(TB) leukemia): 1.9 µM
- TGI (HL-60(TB) leukemia): 3.74 µM
- GI50 (DU-145 prostate): 1.77 µM
- TGI (DU-145 prostate): 3.24 µM

SMILES: CSCC[C@H](NC(=O)[C@H](CC(C)C)NC(=O)[C@H](Cc1c[nH]cn1)NC(=O)CNC(=O)C1N(C(=O)[C@@H](C)NC(=O)[C@H](Cc2c[nH]c3ccccc23)NC(=O)[C@H](CCC(N)=O)NC(=O)[C@@H](N)CC(N)=O)CSC1(C)C)C(N)=O (stereo partly drawn) (H-NQW[dA][ξThz(5,5-Me2)]GHLM-NH2)
- TGI (NCI-H23 lung): > 25 µM
- TGI (NCI-H226 lung): > 25 µM
- TGI (UACC-257 melanoma): > 25 µM
- TGI (HOP-92 NSCLC): > 25 µM

— PubChem BioAssay (NCI)
